# ChEMBL document CHEMBL1201862, “PubChem BioAssay data set” (2004)
# Calls of active or inactive are those of the source.
# Experiments:
# [1] = HepG2 cell cytotoxicity, dose response, cytotoxicity control, ATP luminescence, cherry-pick, activator set 2 (AID 1053143); format: functional, cell-based
# [2] = test system: Streptococcus; experiment: Group A Streptococcus viability loss, dose response, counter-screen for streptokinase expression inhibitor project, luminescence, BacTiterGlo (AID 1915); format: functional, organism-based;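 note: potency for reduction of bacterial viability or growth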
# [3] = test system: Streptococcus sp. 'group A'; experiment: growth inhibition of control SK(-) GAS strain, dose response, counter-screen for streptokinase expression inhibitor project, luminescence, kanamycin, BacTiterGlo, confirmation (AID 1900); format: functional, organism-based
# [4] = target: T1, Streptokinase A (Streptococcus pyogenes serotype M1, UniProt P10520); experiment: S. pyogenes streptokinase expression inhibitors, potency, dose response, plasminogen activation absorbance, OD405 (AID 1914); format: functional, Streptococcus pyogenes M1 GAS;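 note: secreted streptokinase activity via plasminogen activation per viability signal from cell pellet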
# T1 sequence (P10520 whole entry): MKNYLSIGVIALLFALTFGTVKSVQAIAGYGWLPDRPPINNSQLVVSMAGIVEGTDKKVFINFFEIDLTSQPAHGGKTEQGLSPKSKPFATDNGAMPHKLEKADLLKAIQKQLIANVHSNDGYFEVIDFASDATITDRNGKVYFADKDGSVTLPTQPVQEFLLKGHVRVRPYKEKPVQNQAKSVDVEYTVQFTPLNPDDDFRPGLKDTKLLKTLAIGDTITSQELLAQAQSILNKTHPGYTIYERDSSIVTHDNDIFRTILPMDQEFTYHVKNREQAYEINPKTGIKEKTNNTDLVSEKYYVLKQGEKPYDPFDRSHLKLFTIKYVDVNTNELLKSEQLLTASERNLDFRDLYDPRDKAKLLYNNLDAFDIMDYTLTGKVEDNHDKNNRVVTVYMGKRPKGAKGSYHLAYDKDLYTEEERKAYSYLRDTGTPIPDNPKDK
# [5] = cells; settings: HEK293
# [6] = target: Kallikrein-7 (Homo sapiens, UniProt P49862); experiment: Fluorescence Intensity-based biochemical primary high throughput dose response assay to identify activators of kallikrein-7 (K7) zymogen.
# [7] = cells
# [8] = target: Major prion protein (Homo sapiens, UniProt P04156); format: functional, cell-based
# [9] = A549 cell cytotoxicity, dose response, cytotoxicity control, cherry-picks, 26 µM top dose (AID 1053119); format: functional, cell-based
# [10] = inhibitors of fibronectin matrix deposition, dose response, AH1F cells, Alexa488-FN fluorescence, cherry-picks (AID 1035475); format: functional, cell-based
# [11] = HEK293 cell cytotoxicity, dose response, cytotoxicity control, cherry-picks, set 5 (AID 1053117); format: functional, cell-based
# [12] = target: Photoreceptor-specific nuclear receptor (Homo sapiens, UniProt Q9Y5X4); format: functional, cell-based;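 note: CHO-S cells with Gal4-NCOR and VP16-NR2E3 two-hybrid luciferase reporter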
# [13] = target: Galanin receptor type 3 (Homo sapiens, UniProt O60755); experiment: Fluorescence-based cell-based primary high throughput dose response assay to identify antagonists of the Galanin Receptor 3 (GalR3).; format: functional
# [14] = target: COUP transcription factor 2 (Homo sapiens, UniProt P24468); experiment: Luminescence-based cell-based high throughput dose response assay to identify inhibitors of COUP-TFII (NR2F2).; format: functional;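 note: HEK293 cells transiently cotransfected with COUP-TFII expression vector and reporter; luciferase reporter luminescence driven by COUP-TFII from the pX2-168 reporter plasmid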
# [15] = cells; format: functional, cell-based; settings: HEK-CNG
# [16] = IOSE-T80 ovarian epithelial cell cytotoxicity, dose response, cytotoxicity control for PAX8 inhibitor project, plate reader, dry powder samples (AID 743045); format: functional, cell-based
# [17] = target: Paired box protein Pax-8 (Homo sapiens, UniProt Q06710); experiment: inhibitors of PAX8-driven TPO luciferase reporter, dose response, RMG-I cells, cherry-pick (AID 687027); format: functional, cell-based;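 note: luciferase reporter driven by Pax8 target thyroperoxidase promoter measured by SteadyGlo luminescence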
# [18] = NIH:OVCAR-3 ovarian cancer cell cytotoxicity, dose response, PAX8 inhibitor project, plate reader, dry powder samples (AID 743044); format: functional, cell-based
# [19] = inhibitors of CMV-promoter luciferase reporter, dose response, counter-screen for Pax8 inhibitor project, cell-based, HEK293, luminescence, dry powder (AID 743020); format: functional
# [20] = cytotoxicity in OVCAR8 ovarian cancer cells, dose response, PAX8 project, cell-based, plate reader, dry powder samples (AID 743197); format: functional; settings: OVCAR-8
# [21] = PAX2 cell-based inhibition, dose response, selectivity assay for PAX8 inhibitor project, plate reader, dry powder samples (AID 743048); format: functional;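 note: HEK293 cells carrying a WT1 promoter luciferase reporter driven by expressed Pax2; potency is for inhibition of Pax2 driven reporter signal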
# [22] = cytotoxicity dependent on PAX8, dose response, cell-based, plate reader, dry powder (AID 743049); format: functional
# [23] = PAX5 activity inhibitors, dose response, selectivity assay for PAX8 inhibitor project, cell-based, plate reader, dry powder samples (AID 743047); format: functional;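 note: HEK293 cells carrying a Pax5 driven CD19 promoter luciferase reporter; potency of inhibitors that lower reporter luminescence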
# [24] = cytotoxicity in OVCAR4 cells, dose response, cytotoxicity control for PAX8 inhibitor project, cell-based, plate reader, dry powder, SA11 (AID 743150); format: functional; settings: OVCAR-4
# [25] = cytotoxicity in OV-90 ovarian cancer cells, dose response, PAX8 inhibitor project, cell-based, plate reader, dry powder, SA8 (AID 743149); format: functional
compound,measurement,setting,value
O=c1c2ccccc2oc2cc(-c3ccc(CN4CCOCC4)cc3)ccc12,AC50,[1],26 µM (active)
CC(C)(C)[C@H]1CCC(=O)N([C@H](CSc2ccccc2)Cc2ccccc2)CC1,EC50,[2],10.3 µM (active)
same,EC50,[3],7.1 µM (active)
same,EC50,[4],23.2 µM (active)
same,AC50,[5],> 52 µM (inactive)
CN1CCSc2ccc(C(=O)NCc3cccc(F)c3)cc21,EC50,[6],> 69.5 µM (inactive)
O=C(O)CSc1ncnc2scc(-c3ccccc3)c12,IC50,[7],> 138 µM (inactive)
same,IC50,[8],5.04 µM (active)
CN1CCN(C(=O)c2cccc(-c3cnc4cnc(-c5ccccc5Oc5ccccc5)cn34)c2)CC1,AC50,[9],> 52 µM (inactive)
same,AC50,[10],5.86 µM (active)
same,AC50,[11],47.8 µM (active)
same,IC50,[12],1.72 µM (active)
OC[C@@H]1CN(Cc2ccc(-c3ccccc3)cc2)C[C@H](n2cnc3c(NC4CCCC4)ncnc32)O1,IC50,[13],0.349 µM (active)
same,IC50,[14],6.28 µM (active)
same,EC50,[15],> 29.9 µM (inactive)
O=C(Nc1ccc(F)cc1)N1CC(=O)N2[C@@H](CO)[C@H](c3ccc(-c4ccc(F)cc4)cc3)[C@@H]2C1,AC50,[16],36.7 µM (active)
same,AC50,[17],6.32 µM (active)
same,AC50,[18],18.1 µM (active)
same,AC50,[19],34.5 µM (active)
same,AC50,[20],25.6 µM (active)
COc1cccc(-c2ccc([C@H]3[C@@H](CO)N(C(=O)Cc4ccccc4)[C@H]3C#N)cc2)c1,AC50,[21],34.4 µM (active)
same,AC50,[22],25.5 µM (active)
same,AC50,[17],19.5 µM (active)
same,AC50,[23],6.07 µM (active)
same,AC50,[24],10.8 µM (active)
same,AC50,[25],> 70 µM (inactive)
